# Reference: patent US20250049664A1, “SKIN EXTERNAL APPLICATION COMPOSITION FOR SKIN BARRIER STRENGTHENING OR SKIN MOISTURIZING CONTAINING DEHYDROABIETIC ACID” (AMOREPACIFIC CORPORATION, priority 2018, published 2025)
# Columns and labels:
# Assay type in all cases: cell-based, human
# [1] = test system: transglutaminase 1 (TGase 1) gene; assay: Quantitative RT-PCR of TGase 1 gene expression in HaCaT cells; conditions: for Gene expression level (fold) TGase1: 24 hours, relative mRNA level vs ethanol negative control as 1
# Method: (§1) HaCaT cells were cultured in Dulbecco's modified Eagle's medium (DMEM, GIBCO 1210-0038) containing 10% fetal bovine serum. 1×10^6 cells were placed in a […] flask and cultured for 24 hours. Then, after treating with DMEM not containing fetal bovine serum and culturing for 24 hours, the cells were treated with dehydroabietic acid in a medium not containing fetal bovine serum for 24 hours. Then, after harvesting the cells and washing with cooled phosphate-buffered saline (PBS), total RNA was extracted by adding 1 mL of TRIzolTM reagent (Life Technologies, Inc.). Then, quantitative reverse transcriptase PCR was conducted. The primer sequences of PPARα. TGase 1, filaggrin and HAS 2 used to conduct PCR are described in Table 2. After adding 4 μg of total RNA to 25 μL of a reverse transcription buffer containing 50 mM Tris-HCl (pH 8.3), 75 mM KCl, 3 mM MgCl^2, 0.1 M DTT, 10 mM dNTP and 40 units/μL RNase inhibitor, 0.5 μg/μL oligo (dT)16 primer and 200 units of SuperScript II (GIBCO BRL) were added and incubation was conducted at 42° C. for 1 hour. Then, after mixing 2.5 μL of the reverse transcription solution with a 50 µL of a PCR buffer containing AmpliTaq DNA polymerase (0.04U, Perkin Elmer, Shelton, CT), 50 mM Tris (pH 8.3), 0.25 mg/mL bovine serum albumin, 3 mM MgCl2, 0.25 mM dNTPs and a 1/50,000 diluted solution of SYBR Green I (Molecular Probes, Eugene, OR), 10 μM of primers were added and PCR was conducted for 30 cycles of 30 seconds at 94° C., 30 seconds at 53°° C. and 1 minute at 72° C. Relative mRNA level was analyzed by measuring the change in the fluorescence of SYBR Green I using the ICycler software. WY14643, which is a PPARα ligand, was used as a positive control group. The relative mRNA level was represented relative to an ethanol-treated negative control group as 1. […] WY14643 is a PPARα ligand reported to induce keratinocyte differentiation and strengthen skin barrier.
# PPARα = target: T1, PPARα (Mus musculus, UniProt P23204); assay: PPARα activation, PPRE-luciferase reporter assay in transfected HaCaT cells; conditions: 10 μM; for PPARα activation (%): 24 hours, luciferase activity relative to ethanol negative control (100)
# T1 construct: expressed in transfected cells; host or cells: HaCaT (human keratinocytes), transiently transfected
# T1 sequence (P23204 1-468): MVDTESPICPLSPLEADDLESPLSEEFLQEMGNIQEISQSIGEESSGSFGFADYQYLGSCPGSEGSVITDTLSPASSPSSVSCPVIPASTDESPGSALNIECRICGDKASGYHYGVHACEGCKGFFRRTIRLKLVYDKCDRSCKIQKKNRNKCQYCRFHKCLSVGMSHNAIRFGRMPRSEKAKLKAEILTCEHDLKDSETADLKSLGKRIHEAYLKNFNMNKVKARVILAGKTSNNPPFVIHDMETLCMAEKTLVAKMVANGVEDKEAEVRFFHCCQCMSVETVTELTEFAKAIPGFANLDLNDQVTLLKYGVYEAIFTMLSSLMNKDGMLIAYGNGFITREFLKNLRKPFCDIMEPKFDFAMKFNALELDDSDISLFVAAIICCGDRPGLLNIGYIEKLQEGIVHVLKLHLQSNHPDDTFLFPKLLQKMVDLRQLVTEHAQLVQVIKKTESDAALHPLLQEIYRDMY
# Excerpt: HaCaT cells, which are human keratinocytes, were subcultured in DMEM containing 10% fetal bovine serum. A phenol red-free medium was used to avoid the effect of phenol red on estrogen. The following plasmids were used: a plasmid having the PPARα gene downstream of a universal promoter which is expressed in general culture conditions; a plasmid having a PPAR response element (PPRE) activated by binding with ligand-bound PPAR as a promoter and a firefly luciferase gene reporter downstream of the promoter; and a reference plasmid having a β-galactosidase gene bound to a universal promoter [Kliewer, S. A., Forman, B. M., Blumberg, B., Ong, […]., Evans, R. M., Differential expression and activation of a family of murine peroxisome proliferator-activated receptors, Proc. Natl. Acad. Sci. USA, 91 (1994) 7355-7359.]. The HaCaT cells were seeded onto a 24-well plate at a density of 5×10^4 cells/well, cultured for 24 hours, and then transiently transfected with the plasmid genes. After 24 hours of culturing, followed by washing with phosphate-buffered saline (PBS), the ells were treated with dehydroabietic acid of Chemical Formula 1 purchased from Ramidus AB or WY14643, which is a PPARα ligand, as a positive control group at 10 μM. WY14643 is reported as a PPARα ligand which induces keratinocyte differentiation and strengthens skin barrier. A negative control group was treated with ethanol. After 24 hours of culturing, followed by washing with PBS, the cells were harvested and luciferase activity was measured. […] The result for each treatment group was represented relative to that of the negative control group.
# filaggrin gene = assay: Quantitative RT-PCR of filaggrin gene expression in HaCaT cells; conditions: for Gene expression level (fold) Filaggrin: 24 hours, relative mRNA level vs ethanol negative control as 1
# Method: as §1
# PPARα gene = assay: Quantitative RT-PCR of PPARα gene expression in HaCaT cells; conditions: for Gene expression level (fold) PPARα: 24 hours, relative mRNA level vs ethanol negative control as 1
# Method: as §1
# [2] = test system: hyaluronic acid synthase 2 (HAS 2) gene; assay: Quantitative RT-PCR of HAS 2 gene expression in HaCaT cells; conditions: for Gene expression level (fold) HAS 2: 24 hours, relative mRNA level vs ethanol negative control as 1
# Method: as §1
compound,measurement,setting,value
"Cc1cccc(Nc2cc(Cl)nc(SCC(=O)O)n2)c1C [WY14643, reference compound]",Gene expression level (fold) TGase1,[1]; 1 μM,2.13 fold
same,Gene expression level (fold) TGase1,[1]; 10 μM,4.98 fold
same,PPARα activation (%),PPARα,286.9%
same,Gene expression level (fold) Filaggrin,filaggrin gene; 1 μM,1.86 fold
same,Gene expression level (fold) Filaggrin,filaggrin gene; 10 μM,3.12 fold
same,Gene expression level (fold) PPARα,PPARα gene; 1 μM,2.54 fold
same,Gene expression level (fold) PPARα,PPARα gene; 10 μM,5.96 fold
same,Gene expression level (fold) HAS 2,[2]; 1 μM,9.64 fold
same,Gene expression level (fold) HAS 2,[2]; 10 μM,35.93 fold
"CC(C)c1ccc2c(c1)CC[C@H]1[C@](C)(C(=O)O)CCC[C@]21C [Dehydroabietic acid, dehydroabietic acid]",Gene expression level (fold) TGase1,[1]; 1 μM,2.58 fold
same,Gene expression level (fold) TGase1,[1]; 10 μM,5.94 fold
same,"Expression of the transglutaminase 1 (TGase 1) gene, result in words",[1]; treatment for 24 hours,significantly increased
same,PPARα activation (%),PPARα,291.5%
same,"PPARα activation (luciferase activity), result in words",PPARα; compared with WY14643 positive control,induced PPARα activation
same,Gene expression level (fold) Filaggrin,filaggrin gene; 1 μM,2.31 fold
same,Gene expression level (fold) Filaggrin,filaggrin gene; 10 μM,3.34 fold
same,"Expression of the filaggrin gene, result in words",filaggrin gene; treatment for 24 hours,significantly increased
same,Gene expression level (fold) PPARα,PPARα gene; 1 μM,2.65 fold
same,Gene expression level (fold) PPARα,PPARα gene; 10 μM,6.16 fold
same,"Expression of the PPARα gene, result in words",PPARα gene; treatment for 24 hours,significantly increased
same,Gene expression level (fold) HAS 2,[2]; 1 μM,12.4 fold
same,Gene expression level (fold) HAS 2,[2]; 10 μM,40.15 fold
same,"Expression of the hyaluronic acid synthase 2 (HAS 2) gene, result in words",[2]; treatment for 24 hours,significantly increased
